PMC7377239, “Cardiovascular Effects of Polychlorinated Biphenyls and Their Major Metabolites” (Environmental Health Perspectives, 2020)
Read-outs that look alike come from different tables or passages of the source.

Key:
[1] = system: iCell endothelial cells (human iPSC-derived ECs); assay: Tube formation (tubulogenesis) assay in iCell endothelial cells, 18 h; type: cell-based; settings: Homo sapiens, Endothelial cell, 18 hr; for activity at 0.1 µM: 0.10 µM
Procedure: (§1) The culture conditions of iCell®-endothelial cells were as reported elsewhere ([Iwata et al. 2017]). Briefly, T75 flasks were coated with a fibronectin solution ( 3 μg/cm^2 ) followed by incubation for 1–2 h. Cells were thawed for 3 min in a 37°C water bath. Thawed cells were added to maintenance medium made of VascuLife VEGF Medium Complete Kit, excluding the supplied FBS, and iCell® Endothelial Cells Medium Supplement. The final formulation of the maintenance medium is detailed in ([Iwata et al. 2017]). The aliquoted fibronectin solution was aspirated from the T75 flasks, and cells were seeded at 1.0×10^4 cells/cm^2 . Cells were maintained at 37°C and 5% CO2 with media changes occurring every 2 d and passaged every 3–4 d using TrypLE™ Express. All experiments were conducted on cells between passages 1 and 5.
Tube formation assays were performed on Geltrex™ LDEV-free reduced growth factor basement membrane using both iCell®-endothelial cells and HUVECs in 384-well format exactly as detailed in Iwata et al. ([2017]). Negative controls included media-only and vehicle control (i.e., 0.5% vol/vol DMSO in cell culture media) wells. Positive assay controls were consistent with previously published reports ([Iwata et al. 2017]) and included TAB ( 50μM ) as a cytotoxic control, and nocodazole ( 0.01–1μM ), suramin ( 0.5–50μM ), histamine ( 0.1–100μM ), and chloroquine ( 1–500μM ) as chemicals associated with specific effects on ECs. Each test chemical was screened in triplicate for each concentration. Briefly, for iCell®-endothelial cells, starvation media consisted of VascuLife® basal medium with 4 mM L-glutamine LifeFactor and 0.1% iCell®-endothelial cells medium supplement. To counter dilution effects, a 2× concentration of the HUVEC maintenance medium supplemented with additional VEGF was created (EGM™-2 BulletKits™ at 2× concentration; also the VEGF component was replaced with 12.5 ng/mL VEGF). Geltrex™ LDEV-free reduced growth factor basement membrane was thawed overnight and dispensed into 384-well plates ( 10μL/well ) with tapping and rotating to evenly coat. The plates were incubated for 1 h in a cell culture incubator at 37°C and 5% CO2 . A 2× PCB plate (containing all of the PCBs and metabolites in dose–response) was prepared in basal media and added, 25μL per well, to the Geltrex™ coated plates. On separate plates, cells were seeded 7,500 (iPSC- ECs) or 3,500 (HUVEC) cells/well. Cells were exposed to chemicals overnight at 37°C and 5% CO2 and stained with 3× concentration of calcein AM ( 25μL /well, 6μmol/L ) for 15 min before imaging. Images were captured at 4× magnification with the FITC filter (calcein AM). Images were analyzed with the angiogenesis module software within MetaXpress™ (Molecular Devices).
(§2) Phenotypic responses were quantitatively assessed using concentration–response modeling as detailed elsewhere ([Sirenko et al. 2017]). Briefly, phenotypic readouts were normalized to vehicle controls and fit to a four-parameter logistic model in R studio software (version 3.1.1; R Development Core Team). Following EPA guidance on dose–response modeling, a cutoff of one standard deviation across means of vehicle control (i.e., 0.5% vol/vol DMSO in cell culture media) wells was applied to determine the point-of-departure (POD) values ([U.S. EPA 2012]). In the absence of a concentration–response, the highest tested concentration (i.e., 100μM ) was assigned as “no observable adverse effect level.” The concentration–response assessment R script, as well as templates for vehicle and concentration–response data, are available as a supplement to Sirenko et al. ([2017]). The ability of physicochemical properties to predict differences in PODs were evaluated by multiregression and mixed-effects modeling using R.

[2] = system: iCell endothelial cells (human iPSC-derived ECs); assay: High-content imaging cytotoxicity in iCell endothelial cells, 24 h; type: cell-based; settings: Homo sapiens, Endothelial cell, 24 hr; for viability at 0.1 µM / activity at 0.1 µM: 0.10 µM
Procedure: as §1
Cytotoxicity was assessed in parallel experiments. For iCell®-endothelial cells, 384-well plates were coated with a 30μg/mL fibronectin solution ( 10μL/well ) and incubated for 2 h at RT. iCell®-endothelial cells were dissociated with TrypLE™ Express and prepared into a solution to achieve 750 cells per well and 50μL of total volume. The fibronectin solution was removed from the 384-well plate, and cells were plated. For HUVECs, similar dissociation and the same cell density were used for plating with the exclusion of the fibronectin solution. Cells were incubated at 37°C and 5% CO2 until a monolayer was formed, typically 3–5 d. 2×PCB plates were created with the requisite maintenance medium. Before treatment, the medium in the wells was exchanged to 25μL/well of fresh maintenance medium. 2×PCB chemical solutions ( […] ) were added. After 24 h incubation at 37°C and 5% CO2 , cells were stained with Hoechst 33342, MitoTracker™ Orange, and calcein AM for 20 min before replacing the staining media with FluoroBright DMEM. Cell culture plates were imaged using the ImageXpress® Micro Confocal high-content imaging system (Molecular Devices). Images were acquired at 10× magnification with DAPI, TRITC, or FITC filter (Hoechst 33342, MitoTracker™, or calcein AM, respectively). The multiwavelength cell scoring applications module in MetaXpress™ (Molecular Devices) was used to analyze the images.
as §2

[3] = iPSC-EC tube formation, 0.00 µM control = 100.00, read-out: endo.mtl.18hr
[4] = iPSC-EC tube formation, 0.00 µM control = 100.00, read-out: endo.tlps.18hr
[5] = iPSC-EC tube formation, 0.00 µM control = 100.00, read-out: endo.tta.18hr
[6] = iPSC-EC tube formation, 0.00 µM control = 100.00, read-out: endo.ttl.18hr
[7] = iPSC-EC, 0.00 µM control = 100.00, read-out: endo.cyto.24hr
[8] = iPSC-EC, 0.00 µM control = 100.00, read-out: endo.mito.24hr
[9] = iPSC-EC, 0.00 µM control = 100.00, read-out: endo.mitoint.24hr
[10] = iPSC-EC, 0.00 µM control = 100.00, read-out: endo.nma.24hr
[11] = iPSC-EC, 0.00 µM control = 100.00, read-out: endo.tc.24hrs

Q: With `O=C1C=CC(=O)C(c2ccc(Cl)cc2)=C1` [4-Cl-BQ, 2-(4-Chlorophenyl)benzo-2,5-quinone] as the compound, how does the minimal effective concentration ([1]; endothelial cells (endo), tube formation mtl, read-out: POD endo.mtl.18hr) read?
A: 0.38 µM

Q: What about the minimal effective concentration ([1]; endothelial cells (endo), tube formation tlps, read-out: POD endo.tlps.18hr) of the same compound?
A: 1.04 µM

Q: What about the minimal effective concentration ([1]; endothelial cells (endo), tube formation tta, read-out: POD endo.tta.18hr) of the same compound?
A: 23 µM

Q: What about the minimal effective concentration ([1]; endothelial cells (endo), tube formation ttl, read-out: POD endo.ttl.18hr) of the same compound?
A: 11.8 µM

Q: What about the activity at 0.01 µM [1, 3] of the same compound?
A: 102%

Q: What about the activity at 0.01 µM [1, 4] of the same compound?
A: 96%

Q: And the activity at 0.01 µM [1, 5]?
A: 156%

Q: And the activity at 0.01 µM [1, 6]?
A: 153%

Q: What about the activity at 0.1 µM [1, 3] of the same compound?
A: 96.3%

Q: What about the activity at 0.1 µM [1, 4] of the same compound?
A: 114%

Q: And the activity at 0.1 µM [1, 5]?
A: 135%

Q: What about the activity at 0.1 µM [1, 6] of the same compound?
A: 131%

Q: What about the activity at 1 µM [1, 3] of the same compound?
A: 77.5%

Q: And the activity at 1 µM [1, 4]?
A: 70.1%

Q: And the activity at 1 µM [1, 5]?
A: 111%

Q: And the activity at 1 µM [1, 6]?
A: 109%

Q: What about the activity at 10 µM [1, 3] of the same compound?
A: 68.9%

Q: What about the activity at 10 µM [1, 4] of the same compound?
A: 45%

Q: What about the activity at 10 µM [1, 5] of the same compound?
A: 99.9%

Q: And the activity at 10 µM [1, 6]?
A: 77.6%

Q: And the activity at 100 µM [1, 3]?
A: 59.2%

Q: What about the activity at 100 µM [1, 4] of the same compound?
A: 9.31%

Q: What about the activity at 100 µM [1, 5] of the same compound?
A: 0.43%

Q: What about the activity at 100 µM [1, 6] of the same compound?
A: 0.77%

Q: And the minimal effective concentration ([1]; iPSC-EC tube formation, top concentration 100.00 µM, read-out: endo.mtl.18hr POD)?
A: 0.38 µM

Q: And the minimal effective concentration ([1]; iPSC-EC tube formation, top concentration 100.00 µM, read-out: endo.tlps.18hr POD)?
A: 1.04 µM

Q: What about the minimal effective concentration ([1]; iPSC-EC tube formation, top concentration 100.00 µM, read-out: endo.tta.18hr POD) of the same compound?
A: 23 µM

Q: And the minimal effective concentration ([1]; iPSC-EC tube formation, top concentration 100.00 µM, read-out: endo.ttl.18hr POD)?
A: 11.8 µM

Q: What about the minimal effective concentration ([2]; endothelial cells (endo), cyto, read-out: POD endo.cyto.24hr) of the same compound?
A: 3.82 µM

Q: And the minimal effective concentration ([2]; endothelial cells (endo), mito, read-out: POD endo.mito.24hr)?
A: 3.82 µM

Q: What about the minimal effective concentration ([2]; endothelial cells (endo), mitoint, read-out: POD endo.mitoint.24hr) of the same compound?
A: 14.2 µM

Q: What about the minimal effective concentration ([2]; endothelial cells (endo), nma, read-out: POD endo.nma.24hr) of the same compound?
A: 13 µM

Q: And the minimal effective concentration ([2]; endothelial cells (endo), tc, read-out: POD endo.tc.24hr)?
A: 2.56 µM

Q: What about the viability at 0.01 µM [2, 7] of the same compound?
A: 90%

Q: And the activity at 0.01 µM [2, 8]?
A: 90.5%

Q: What about the activity at 0.01 µM [2, 9] of the same compound?
A: 114%

Q: And the activity at 0.01 µM [2, 10]?
A: 105%

Q: And the viability at 0.01 µM [2, 11]?
A: 90%

Q: And the viability at 0.1 µM [2, 7]?
A: 89.7%

Q: What about the activity at 0.1 µM [2, 8] of the same compound?
A: 89.9%

Q: What about the activity at 0.1 µM [2, 9] of the same compound?
A: 103%

Q: And the activity at 0.1 µM [2, 10]?
A: 104%

Q: And the viability at 0.1 µM [2, 11]?
A: 89.7%

Q: What about the viability at 1 µM [2, 7] of the same compound?
A: 93.1%

Q: What about the activity at 1 µM [2, 8] of the same compound?
A: 93.1%

Q: What about the activity at 1 µM [2, 9] of the same compound?
A: 99.3%

Q: And the activity at 1 µM [2, 10]?
A: 103%

Q: And the viability at 1 µM [2, 11]?
A: 93.1%

Q: And the viability at 10 µM [2, 7]?
A: 87.8%

Q: And the activity at 10 µM [2, 8]?
A: 87.7%

Q: And the activity at 10 µM [2, 9]?
A: 95.2%

Q: And the activity at 10 µM [2, 10]?
A: 102%

Q: What about the viability at 10 µM [2, 11] of the same compound?
A: 87.8%

Q: What about the viability at 100 µM [2, 7] of the same compound?
A: 12.1%

Q: What about the activity at 100 µM [2, 8] of the same compound?
A: 3.06%

Q: What about the activity at 100 µM [2, 9] of the same compound?
A: 30.1%

Q: And the activity at 100 µM [2, 10]?
A: 161%

Q: What about the viability at 100 µM [2, 11] of the same compound?
A: 31.3%

Q: And the minimal effective concentration ([2]; iPSC-EC, top concentration 100.00 µM, read-out: endo.cyto.24hr POD)?
A: 3.82 µM

Q: What about the minimal effective concentration ([2]; iPSC-EC, top concentration 100.00 µM, read-out: endo.mito.24hr POD) of the same compound?
A: 3.82 µM

Q: What about the minimal effective concentration ([2]; iPSC-EC, top concentration 100.00 µM, read-out: endo.mitoint.24hr POD) of the same compound?
A: 14.2 µM

Q: What about the minimal effective concentration ([2]; iPSC-EC, top concentration 100.00 µM, read-out: endo.nma.24hr POD) of the same compound?
A: 13 µM

Q: What about the minimal effective concentration ([2]; iPSC-EC, top concentration 100.00 µM, read-out: endo.tc.24hrs POD) of the same compound?
A: 2.56 µM
